The values that follow come from patent US11564923B2, “Compounds and pharmaceutical compositions thereof for the treatment of inflammatory disorders” (Galapagos NV, priority 2017, dated 2023).

What all share (assay type): biochemical
In assay [1] the target is Recombinant human JAK3 catalytic domain (amino acids 781-1124) (Homo sapiens, UniProt P52333). As to the kind of experiment: JAK3 inhibition assay. The gist of the method: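 Radiometric kinase reaction run 45 min at 30° C., stopped with phosphoric acid; activity as vehicle cpm minus 10 μM staurosporine cpm.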
In assay [2] the target is T1, Recombinant human JAK2 (catalytic domain, amino acids 808-1132) (Homo sapiens, UniProt O60674).
T1 construct: catalytic domain, amino acids 808-1132
The assay is described as follows: JAK2 inhibition assay. Also: 0.7 µM ATP. Conditions: read-out: JAK2 potency IC50.

Assay [3] addresses T2, Recombinant human TYK2 catalytic domain (amino acids 871-1187) (Homo sapiens, UniProt P29597).
T2 construct: catalytic domain (amino acids 871-1187)
T2 sequence (P29597 871-1187): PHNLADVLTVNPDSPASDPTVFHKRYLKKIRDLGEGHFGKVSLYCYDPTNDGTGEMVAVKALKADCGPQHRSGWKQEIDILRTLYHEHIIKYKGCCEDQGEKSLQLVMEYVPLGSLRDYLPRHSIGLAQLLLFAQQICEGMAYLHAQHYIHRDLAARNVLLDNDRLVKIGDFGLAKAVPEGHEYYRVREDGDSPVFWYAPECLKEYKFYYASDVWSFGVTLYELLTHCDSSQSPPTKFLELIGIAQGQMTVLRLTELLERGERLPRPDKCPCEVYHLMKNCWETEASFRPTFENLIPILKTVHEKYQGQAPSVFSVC
The assay is described as follows: TYK2 radioactive assay polyGT substrate. Also: 0.1 µM ATP. The gist of the method:
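Reaction at 30° C. for 120 min, ended with 150 mM phosphoric acid, washed, counted; percent inhibition scaled between vehicle and 10 μM staurosporine cpm.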

The target in assay [4] is T2, Recombinant human TYK2 catalytic domain (amino acids 871-1187). As to the kind of experiment: TYK2 ADPglo kinase assay. (In general: In ADP-Glo the light output rises with the ADP produced.)

Structures are written as SMILES.

T1 sequence (O60674 808-1132): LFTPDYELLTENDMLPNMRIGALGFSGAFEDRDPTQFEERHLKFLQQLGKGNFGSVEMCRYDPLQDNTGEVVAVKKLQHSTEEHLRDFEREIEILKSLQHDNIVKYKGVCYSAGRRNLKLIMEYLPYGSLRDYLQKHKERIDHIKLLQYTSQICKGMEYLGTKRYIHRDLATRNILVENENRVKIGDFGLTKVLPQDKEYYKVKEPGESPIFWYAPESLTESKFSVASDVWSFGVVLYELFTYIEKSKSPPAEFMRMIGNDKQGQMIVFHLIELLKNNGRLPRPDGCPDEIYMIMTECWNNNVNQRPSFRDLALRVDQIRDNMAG
Sequence of Recombinant human JAK3 catalytic domain (amino acids 781-1124) (P52333 781-1124): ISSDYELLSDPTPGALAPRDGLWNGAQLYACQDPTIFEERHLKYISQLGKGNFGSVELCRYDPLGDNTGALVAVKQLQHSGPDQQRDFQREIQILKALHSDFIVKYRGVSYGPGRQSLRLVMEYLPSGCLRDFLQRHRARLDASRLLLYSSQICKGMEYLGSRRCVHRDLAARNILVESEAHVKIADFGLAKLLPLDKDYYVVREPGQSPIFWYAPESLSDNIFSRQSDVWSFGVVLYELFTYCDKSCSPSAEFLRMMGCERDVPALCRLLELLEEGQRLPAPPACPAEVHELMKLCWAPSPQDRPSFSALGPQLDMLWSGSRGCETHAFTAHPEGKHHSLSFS

As for `Cc1cc(C(F)(F)F)ncc1Oc1cc(Nc2cc(N)ncn2)c2ncn(C)c2n1` [Compound 1, N-[3-Methyl-5-(4-methyl-6-trifluoromethyl-pyridin-3-yloxy)-3H-imidazo[4,5-b]pyridin-7-yl]-pyrimidine-4,6-diamine], the results for the IC50 in assay [1], in assay [2] and in assay [3] were 1490 nM, 67.3 nM and 10.1 nM, respectively.

As for `Cc1cc(C#N)ncc1Nc1cc(Nc2ccc(C(=O)N(C)C)cn2)c2ncn(C)c2n1` [Compound 67, 6-[[5-[(6-cyano-4-methyl-3-pyridyl)amino]-3-methyl-imidazo[4,5-b]pyridin-7-yl]amino]-N,N-dimethyl-pyridine-3-carboxamide], the results for the IC50 in assay [1], in assay [2] and in assay [3] were 258 nM, 28.2 nM and 3.38 nM, respectively.

`Cc1cc(C#N)ncc1Oc1cc(Nc2ccc(S(=O)(=O)C(F)F)cc2)c2ncn(C)c2n1` [Compound 68, 5-[7-[4-(difluoromethylsulfonyl)anilino]-3-methyl-imidazo[4,5-b]pyridin-5-yl]oxy-4-methyl-pyridine-2-carbonitrile]: the values for the IC50 in assay [1], in assay [2] and in assay [3] were 2760 nM, 175 nM and 15.7 nM, respectively.

`Cc1cc(C#N)ncc1Oc1cc(Nc2ccc(S(=O)(=O)C3CC3)cc2)c2ncn(C)c2n1` [Compound 69, 5-[7-(4-cyclopropylsulfonylanilino)-3-methyl-imidazo[4,5-b]pyridin-5-yl]oxy-4-methyl-pyridine-2-carbonitrile]: the results for the IC50 in assay [1], in assay [2] and in assay [3] were 1310 nM, 70 nM and 6.07 nM, respectively.

For `Cc1cc(C#N)ncc1N(c1cc(Nc2cc(N)ncn2)c2ncn(C)c2n1)C1CC1` [Compound 88, 5-[[7-[(6-aminopyrimidin-4-yl)amino]-3-methyl-imidazo[4,5-b]pyridin-5-yl]-cyclopropyl-amino]-4-methyl-pyridine-2-carbonitrile], the IC50 in assay [1] was found to be 189 nM; in assay [2], 1.42 nM; in assay [4], 0.11 nM; in assay [3], 0.52 nM.

On to `Cn1cnc2c(Nc3ccc(S(C)(=O)=O)cn3)cc(NC(C3CC3)C(F)(F)F)nc21` (centres unmarked) [Compound 92, N5-(1-cyclopropyl-2,2,2-trifluoro-ethyl)-3-methyl-N7-(5-methylsulfonyl-2-pyridyl)imidazo[4,5-b]pyridine-5,7-diamine], for which the IC50 in assay [1] amounted to 13 nM; in assay [2], 1.17 nM; in assay [4], 0.58 nM; in assay [3] it was 1 nM.

For the compound `CC(C)C(Nc1cc(Nc2cc(N)ncn2)c2ncn(C)c2n1)C(F)(F)F` (centres unmarked) [Compound 93, N7-(6-aminopyrimidin-4-yl)-3-methyl-N5-[2-methyl-1-(trifluoromethyl)propyl)imidazo[4,5-b]pyridine-5,7-diamine], the results for the IC50 in assay [1], in assay [2] and in assay [3] were 77.4 nM, 16.4 nM and 4.99 nM, respectively.

For orientation: IC50 means the concentration needed to halve the response being measured.
